Laboratory results as given in patent publication US8063065B2, “Azaindazole compounds as CCR1 receptor antagonists” (Boehringer Ingelheim International GmbH, priority 2008, dated 2011).

Biological target: T1, CCR1 (Homo sapiens, UniProt P32246)
T1 sequence (P32246 1-355): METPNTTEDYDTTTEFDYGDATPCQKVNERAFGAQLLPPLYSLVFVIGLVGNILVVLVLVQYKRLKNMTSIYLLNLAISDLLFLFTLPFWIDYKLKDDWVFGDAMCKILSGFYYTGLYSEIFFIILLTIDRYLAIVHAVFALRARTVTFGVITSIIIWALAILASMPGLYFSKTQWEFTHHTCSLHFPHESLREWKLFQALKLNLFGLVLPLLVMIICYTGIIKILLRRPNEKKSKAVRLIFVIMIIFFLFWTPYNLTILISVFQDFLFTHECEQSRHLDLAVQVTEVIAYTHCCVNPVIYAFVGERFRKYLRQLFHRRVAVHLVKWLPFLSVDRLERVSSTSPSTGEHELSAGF
Assay: Method A: calcium flux in CCR1 transfected cells (Fluo-4 NW, FLIPR TETRA), block of the CCR1/MIP-1α interaction
Assay type: cell-based
Settings: Method A: Fluo-4 NW, MIP-1 alpha at EC80
Summary of the method: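 Non-adherent cells stably expressing recombinant CCR1 and G-alpha-16, Fluo-4 NW-loaded 1 h at room temperature, preincubated 1 h with compound (top 3,000 nM, 4-fold, 10 doses; 1% DMSO) in HBSS/20 mM HEPES pH 7.4. MIP-1 alpha added at EC80; intracellular calcium flux recorded on FLIPR TETRA.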

Row | IC50 [nM] | Compound
1 | 13 | O=C(NCc1cncc(Br)c1)c1cncc2c1cnn2-c1ccc(F)cc1 [1-(4-Fluorophenyl)-1H-pyrazolo[3,4-c]pyridine-4-carboxylic acid (5-bromopyridin-3-ylmethyl)-amide]
2 | 5 | CCC[C@H](NC(=O)c1cncc2c1cnn2-c1ccc(F)cc1)c1cccnc1 [1-(4-Fluorophenyl)-1H-pyrazolo[3,4-c]pyridine-4-carboxylic acid ((S)-1-pyridin-3-yl-butyl)-amide]
3 | 3 | C[C@H](NC(=O)c1cncc2c1cnn2-c1ccc(F)cc1)c1cncc(S(C)(=O)=O)c1 [1-(4-Fluorophenyl)-1H-pyrazolo[3,4-c]pyridine-4-carboxylic acid [(S)-1-(5-methanesulfonyl-pyridin-3-yl)-ethyl]-amide]
4 | 17 | CCC[C@H](NC(=O)c1cncc2c1cnn2-c1ccc(F)cc1)c1cncc(S(=O)(=O)CCC(=O)O)c1 [3-[5-((S)-1-{[1-(4-Fluorophenyl)-1H-pyrazolo[3,4-c]pyridine-4-carbonyl]-amino}-butyl)-pyridine-3-sulfonyl]-propionic acid]
5 | 4 | CCC[C@H](NC(=O)c1cncc2c1cnn2-c1ccc(F)cc1)c1cncc(S(=O)(=O)O)c1 [5-((S)-1-{[1-(4-Fluorophenyl)-1H-pyrazolo[3,4-c]pyridine-4-carbonyl]-amino}-butyl)-pyridine-3-sulfonic acid]
6 | 1 | C[C@H](NC(=O)c1cncc2c1cnn2-c1ccc(F)cc1)c1cncc(Br)c1 [1-(4-Fluorophenyl)-1H-pyrazolo[3,4-c]pyridine-4-carboxylic acid [(S)-1-(5-bromopyridin-3-yl)-ethyl]-amide]
7 | 0.8 | CCCC(NC(=O)c1cncc2c1cnn2-c1ccc(F)cc1)c1ccc(S(C)(=O)=O)nc1 (stereo not drawn) [1-(4-Fluorophenyl)-1H-pyrazolo[3,4-c]pyridine-4-carboxylic acid [1-(6-methanesulfonyl-pyridin-3-yl)-butyl]-amide]
8 | 0.8 | CCCC(NC(=O)c1cncc2c1cnn2-c1ccc(F)cc1)c1ccnc(S(=O)(=O)CC)c1 (stereo not drawn) [1-(4-Fluorophenyl)-1H-pyrazolo[3,4-c]pyridine-4-carboxylic acid [1-(2-ethanesulfonyl-pyridin-4-yl)-butyl]-amide]
9 | 1 | C=CC[C@@H](NC(=O)c1cncc2c1cnn2-c1ccc(F)cc1)c1ccnc(S(C)(=O)=O)c1 [1-(4-Fluorophenyl)-1H-pyrazolo[3,4-c]pyridine-4-carboxylic acid [(R)-1-(2-methanesulfonyl-pyridin-4-yl)-but-3-enyl]-amide]
10 | 4 | C[C@H](NC(=O)c1cncc2c1cnn2-c1ccc(Cl)cc1)c1cncc(S(C)(=O)=O)c1 [1-(4-Chlorophenyl)-1H-pyrazolo[3,4-c]pyridine-4-carboxylic acid [(S)-1-(5-methanesulfonyl-pyridin-3-yl)-ethyl]-amide]
11 | 0.3 | CCC[C@H](NC(=O)c1cncc2c1cnn2-c1ccc(F)cc1)c1cncc(S(C)(=O)=O)c1 [1-(4-Fluorophenyl)-1H-pyrazolo[3,4-c]pyridine-4-carboxylic acid [(S)-1-(5-methanesulfonyl-pyridin-3-yl)-butyl]-amide]
12 | 0.4 | CCCC(NC(=O)c1cncc2c1cnn2-c1ccc(F)cc1)c1cncc(S(N)(=O)=O)c1 (stereo not drawn) [1-(4-Fluorophenyl)-1H-pyrazolo[3,4-c]pyridine-4-carboxylic acid [1-(5-sulfamoyl-pyridin-3-yl)-butyl]-amide]

Further lines, the compound ahead of its results:

Row | Compound | IC50 [nM]
13 | CN(C)S(=O)(=O)N(C)c1ccc(CNC(=O)c2cncc3c2cnn3-c2ccc(F)cc2)cn1 [1-(4-Fluorophenyl)-1H-pyrazolo[3,4-c]pyridine-4-carboxylic acid [6-(dimethylamino-sulfonylmethylamino)-pyridin-3-ylmethyl]-amide] | 1
14 | CS(=O)(=O)c1cccc(CNC(=O)c2cncc3c2cnn3-c2ccc(Cl)cc2)c1 [1-(4-Chlorophenyl)-1H-pyrazolo[3,4-c]pyridine-4-carboxylic acid 3-methanesulfonyl-benzylamide] | 7
15 | CN1CCC(N(C)S(=O)(=O)Cc2ccc(CNC(=O)c3cncc4c3cnn4-c3ccc(F)cc3)cc2)CC1 [1-(4-Fluorophenyl)-1H-pyrazolo[3,4-c]pyridine-4-carboxylic acid 4-{[methyl-(1-methyl-piperidin-4-yl)-sulfamoyl]-methyl}-benzylamide] | 33
16 | O=C(NCc1ccnc(Br)c1)c1cncc2c1cnn2-c1ccc(F)cc1 [1-(4-Fluorophenyl)-1H-pyrazolo[3,4-c]pyridine-4-carboxylic acid (2-bromopyridin-4-ylmethyl)-amide] | 2
17 | CN1CCN(S(=O)(=O)Cc2ccc(CNC(=O)c3cncc4c3cnn4-c3ccc(F)cc3)cc2)CC1 [1-(4-Fluorophenyl)-1H-pyrazolo[3,4-c]pyridine-4-carboxylic acid 4-(4-methyl-piperazine-1-sulfonylmethyl)-benzylamide] | 39
18 | COc1cc(CNC(=O)c2cncc3c2cnn3-c2ccc(F)cc2)ccc1S(C)(=O)=O [1-(4-Fluorophenyl)-1H-pyrazolo[3,4-c]pyridine-4-carboxylic acid 4-methanesulfonyl-3-methoxy-benzylamide] | 4
19 | COCCN(c1ccc(CNC(=O)c2cncc3c2cnn3-c2ccc(F)cc2)cn1)S(C)(=O)=O [1-(4-Fluorophenyl)-1H-pyrazolo[3,4-c]pyridine-4-carboxylic acid {6-[methanesulfonyl-(2-methoxy-ethyl)-amino]-pyridin-3-ylmethyl}-amide] | 1
20 | CC(O)CNS(=O)(=O)c1ccc(CNC(=O)c2cncc3c2cnn3-c2ccc(F)cc2)cc1 (stereo not drawn) [1-(4-Fluorophenyl)-1H-pyrazolo[3,4-c]pyridine-4-carboxylic acid 4-(2-hydroxy-propylsulfamoyl)-benzylamide] | 2
21 | COCCN(c1ccc(CNC(=O)c2cncc3c2cnn3-c2ccc(Cl)cc2)cn1)S(C)(=O)=O [1-(4-Chlorophenyl)-1H-pyrazolo[3,4-c]pyridine-4-carboxylic acid {6-[methanesulfonyl-(2-methoxy-ethyl)-amino]-pyridin-3-ylmethyl}-amide] | 5
22 | CCS(=O)(=O)c1ccc(CNC(=O)c2cncc3c2cnn3-c2ccc(F)cc2)cn1 [1-(4-Fluorophenyl)-1H-pyrazolo[3,4-c]pyridine-4-carboxylic acid (6-ethanesulfonyl-pyridin-3-ylmethyl)-amide] | 31
23 | COCCNS(=O)(=O)c1ccc(CNC(=O)c2cncc3c2cnn3-c2ccc(F)cc2)cn1 [1-(4-Fluorophenyl)-1H-pyrazolo[3,4-c]pyridine-4-carboxylic acid [6-(2-methoxy-ethylsulfamoyl)-pyridin-3-ylmethyl]-amide] | 9
24 | CN(CCO)S(=O)(=O)c1ccc(CNC(=O)c2cncc3c2cnn3-c2ccc(F)cc2)cc1 [1-(4-Fluorophenyl)-1H-pyrazolo[3,4-c]pyridine-4-carboxylic acid 4-[(2-hydroxy-ethyl)-methyl-sulfamoyl]-benzylamide] | 1
25 | O=C(NCc1ccc(S(=O)(=O)NC2CCOCC2)nc1)c1cncc2c1cnn2-c1ccc(F)cc1 [1-(4-Fluorophenyl)-1H-pyrazolo[3,4-c]pyridine-4-carboxylic acid [6-(tetrahydropyran-4-ylsulfamoyl)-pyridin-3-ylmethyl]-amide] | 17
26 | CC(CO)NS(=O)(=O)c1ccc(CNC(=O)c2cncc3c2cnn3-c2ccc(F)cc2)cc1 (stereo not drawn) [1-(4-Fluorophenyl)-1H-pyrazolo[3,4-c]pyridine-4-carboxylic acid 4-(2-hydroxy-1-methyl-ethylsulfamoyl)-benzylamide] | 2
27 | CCCC(NC(=O)c1cncc2c1cnn2-c1ccc(F)cc1)c1ccnc(Br)c1 (stereo not drawn) [1-(4-Fluorophenyl)-1H-pyrazolo[3,4-c]pyridine-4-carboxylic acid [1-(2-bromopyridin-4-yl)-butyl]-amide] | 0.4
28 | CNS(=O)(=O)c1cc(CNC(=O)c2cncc3c2cnn3-c2ccc(F)cc2)ccc1OC [1-(4-Fluorophenyl)-1H-pyrazolo[3,4-c]pyridine-4-carboxylic acid 4-methoxy-3-methylsulfamoyl-benzylamide] | 12
29 | O=C(NCc1ccc(N2CCCCS2(=O)=O)nc1)c1cncc2c1cnn2-c1ccc(F)cc1 [1-(4-Fluorophenyl)-1H-pyrazolo[3,4-c]pyridine-4-carboxylic acid [6-(1,1-dioxo-1λ6-perhydro-1,2-thiazin-2-yl)-pyridin-3-ylmethyl]-amide] | 9
30 | CN(c1ccc(CNC(=O)c2cncc3c2cnn3-c2ccc(F)cc2)cn1)S(C)(=O)=O [1-(4-Fluorophenyl)-1H-pyrazolo[3,4-c]pyridine-4-carboxylic acid [6-(methanesulfonyl-methyl-amino)-pyridin-3-ylmethyl]-amide] | 5
31 | O=C(NCc1cc(Cl)cc(Cl)c1)c1cncc2c1cnn2-c1ccc(F)cc1 [1-(4-Fluorophenyl)-1H-pyrazolo[3,4-c]pyridine-4-carboxylic acid 3,5-dichloro-benzylamide] | 7
32 | O=C(NCc1ccc(S(=O)(=O)N2CCOCC2)cc1)c1cncc2c1cnn2-c1ccc(F)cc1 [1-(4-Fluorophenyl)-1H-pyrazolo[3,4-c]pyridine-4-carboxylic acid 4-(morpholine-4-sulfonyl)-benzylamide] | 2
33 | CCC(NC(=O)c1cncc2c1cnn2-c1ccc(F)cc1)c1ccnc(Br)c1 (stereo not drawn) [1-(4-Fluorophenyl)-1H-pyrazolo[3,4-c]pyridine-4-carboxylic acid [1-(2-bromopyridin-4-yl)-propyl]-amide] | 0.4
